Laboratory results published in patent US20130196964A1, “HETEROCYCLICALLY SUBSTITUTED ARYL COMPOUNDS AS HIF INHIBITORS” (BAYER SCHERING PHARMA AKTIENGESELLSCHAFT, priority 2008, published 2013).
pIC50: −log10 of the molar value. Counter-ions that a name gives are not always drawn.

These compounds were tested on HCT 116 cells transfected with a luciferase reporter under the control of an HIF-responsive sequence (assay: HIF-luciferase assay). Details: Homo sapiens; HCT 116 HIF-luciferase reporter cells, hypoxia chamber (1% O2), 24 h, luminescence.
Type: cell-based
Description: HCT 116 cells were transfected in a stable manner with a plasmid which contained a luciferase reporter under the control of an HIF-responsive sequence. These cells were sown in microtitre plates [20,000 cells/cavity in RPMI 1640 medium with 10% foetal calf serum (FCS) and 100 μg/ml of hygromycin]. Incubation was carried out overnight under standard conditions (5% CO2, 21% O2, 37° C., moistened). The following morning the cells were incubated with various concentrations of the test substances (0-10 μmol/l) in a hypoxia chamber (1% O2). After 24 h, Bright Glo reagent (Promega, Wis., USA) was added in accordance with the manufacturer'/s instructions, and after 5 min the luminescence was measured. Cells which were incubated under normoxia served as background controls.
Cc1cc(-c2nc(-c3ccc(OC(F)(F)F)cc3)no2)nn1Cc1ccnc(N2CCC(N(C)C)CC2)c1 [Example 16, N,N-Dimethyl-1-{4-[(5-methyl-3-{3-[4-(trifluoromethoxy)phenyl]-1,2,4-oxadiazol-5-yl}-1H-pyrazol-1-yl)methyl]pyridin-2-yl}piperidin-4-amine] showed a pIC50 of 8.40. Work on Cc1cc(-c2nc(-c3ccc(OC(F)(F)F)cc3)no2)nn1Cc1ccnc(N2CC(N(C)C)C2)c1 [Example 18] yielded a pIC50 of 8.30. Cc1cc(-c2nc(-c3ccc(OC(F)(F)F)cc3)no2)nn1Cc1ccnc(N2CCN(C(C)C)CC2)c1 [Example 21] was tested, and the pIC50 was 8.00. Cc1cc(-c2nc(-c3ccc(OC(F)(F)F)cc3)no2)nn1Cc1cccc(C(=O)N2CCN(C3CC3)CC2)c1 [Example 35] gave a pIC50 of 8.70. With Cc1cc(-c2nc(-c3ccc(S(=O)(=O)C(F)(F)F)cc3)no2)nn1Cc1cccc(C(=O)N2CCN(C)CC2)c1 [Example 41] the pIC50 was 8.22. Cc1cc(-c2nc(-c3ccc(C4(F)CCOCC4)cc3)no2)nn1Cc1cccc(C(=O)N2CCN(C)CC2)c1 [Example 45] was tested, and the pIC50 was 8.00. Compound Cc1cc(-c2nc(-c3ccc(OC(F)(F)F)cc3)no2)cn1Cc1cccc(C(=O)N2CCN(C)CC2)c1 [Example 52] has a pIC50 of 8.52. Work on Cc1cc(-c2nc(-c3ccc(OC(F)(F)F)cc3)no2)nn1Cc1ccnc(N2CCN(C3CC3)CC2)c1 [Example 65, 1-Cyclopropyl-4-{4-[(5-methyl-3-{3-[4-(trifluoromethoxy)phenyl]-1,2,4-oxadiazol-5-yl}-1H-pyrazol-1-yl)methyl]pyridin-2-yl}piperazine] yielded a pIC50 of 9.22. Cc1cc(-c2nc(-c3ccc(C4CCOCC4)cc3)no2)nn1Cc1ccnc(N2CCN(C3CC3)CC2)c1 [Example 71, 1-Cyclopropyl-4-{4-[(5-methyl-3-{3-[4-(tetrahydro-2H-pyran-4-yl)phenyl]-1,2,4-oxadiazol-5-yl}-1H-pyrazol-1-yl)methyl]pyridin-2-yl}piperazine] was tested, and the pIC50 was 9.00. Compound Cc1cc(-c2nc(-c3ccc(OC(F)(F)F)cc3)no2)nn1Cc1ccnc(N2CCN(CC(F)(F)F)CC2)c1 [Example 72, 1-{4-[(5-Methyl-3-{3-[4-(trifluoromethoxy)phenyl]-1,2,4-oxadiazol-5-yl}-1H-pyrazol-1-yl)-methyl]pyridin-2-yl}-4-(2,2,2-trifluoroethyl)piperazine] has a pIC50 of 9.00. For Cc1cc(-c2nc(-c3ccc(C(C)(C)C)cc3)no2)nn1Cc1ccnc(N2CCN(C3CC3)CC2)c1 [Example 75, 1-[4-({3-[3-(4-tert-Butylphenyl)-1,2,4-oxadiazol-5-yl]-5-methyl-1H-pyrazol-1-yl}methyl)pyridin-2-yl]-4-cyclopropylpiperazine], the pIC50 was 9.00. COCC1(c2ccc(-c3noc(-c4cc(C)n(Cc5ccnc(N6CCN(C7CC7)CC6)c5)n4)n3)cc2)CCC1 [Example 77, 1-Cyclopropyl-4-(4-{[3-(3-{4-[1-(methoxymethyl)cyclobutyl]phenyl}-1,2,4-oxadiazol-5-yl)-5-methyl-1H-pyrazol-1-yl]methyl}pyridin-2-yl)piperazine] showed a pIC50 of 9.00. Cc1cc(-c2nc(-c3ccc(C(C)(C)C)cc3)no2)nn1Cc1ccnc(N2CCN(CC(F)(F)F)CC2)c1 [Example 78, 1-[4-({3-[3-(4-tert-Butylphenyl)-1,2,4-oxadiazol-5-yl]-5-methyl-1H-pyrazol-1-yl}methyl)pyridin-2-yl]-4-(2,2,2-trifluoroethyl)piperazine] gave a pIC50 of 9.30. With Cc1cc(-c2nc(-c3ccc(OC(F)(F)F)cc3)no2)nn1Cc1ccnc(N2CCC(C#N)CC2)c1 [Example 85, 1-{4-[(5-Methyl-3-{3-[4-(trifluoromethoxy)phenyl]-1,2,4-oxadiazol-5-yl}-1H-pyrazol-1-yl)-methyl]pyridin-2-yl}piperidine-4-carbonitrile] the pIC50 was 8.70. Work on Cc1cc(-c2nc(-c3ccc(OC(F)(F)F)cc3)no2)nn1Cc1ccnc(N2CCN(C)C(=O)C2)c1 [Example 86, 1-Methyl-4-{4-[(5-methyl-3-{3-[4-(trifluoromethoxy)phenyl]-1,2,4-oxadiazol-5-yl}-1H-pyrazol-1-yl)methyl]pyridin-2-yl}piperazin-2-one] yielded a pIC50 of 8.40. Cc1cc(-c2nc(-c3ccc(C4(C(F)(F)F)CC4)cc3)no2)nn1Cc1ccnc(N2CCN(C3CC3)CC2)c1 [Example 91, 1-Cyclopropyl-4-(4-{[5-methyl-3-(3-{4-[1-(trifluoromethyl)cyclopropyl]phenyl}-1,2,4-oxadiazol-5-yl)-1H-pyrazol-1-yl]methyl}pyridin-2-yl)piperazine] gave a pIC50 of 9.22. Cc1cc(-c2nc(-c3ccc(OC(F)(F)F)c(F)c3)no2)nn1Cc1ccnc(N2CCN(C3CC3)CC2)c1 [Example 93, 1-Cyclopropyl-4-{4-[(3-{3-[3-fluoro-4-(trifluoromethoxy)phenyl]-1,2,4-oxadiazol-5-yl}-5-methyl-1H-pyrazol-1-yl)methyl]pyridin-2-yl}piperazine] showed a pIC50 of 9.10. In the case of Cc1cc(-c2nc(-c3ccc(OC(F)(F)F)cc3)no2)nn1Cc1cccc(C(=O)N2CCCO2)c1 [Example 100, {3-[(5-Methyl-3-{3-[4-(trifluoromethoxy)phenyl]-1,2,4-oxadiazol-5-yl}-1H-pyrazol-1-yl)methyl]-phenyl}(1,2-oxazolidin-2-yl)methanone], the pIC50 was 8.60. Cc1cc(-c2nc(-c3cccc(OC(F)(F)F)c3)no2)nn1Cc1cccc(C(=O)N2CCN(C)CC2)c1 [Example 119, (4-Methylpiperazin-1-yl) {3-[(5-methyl-3-{3-[3-(trifluoromethoxy)phenyl]-1,2,4-oxadiazol-5-yl}-1H-pyrazol-1-yl)methyl]phenyl}methanone hydrochloride] showed a pIC50 of 7.70. Compound Cc1cc(-c2nc(-c3ccc(C4(C(F)(F)F)CC4)cc3)no2)nn1Cc1cccc(C(=O)N2CCN(C)CC2)c1 [Example 137, (4-Methylpiperazin-1-yl)(3-{[5-methyl-3-(3-{4-[1-(trifluoromethyl)cyclopropyl]phenyl}-1,2,4-oxadiazol-5-yl)-1H-pyrazol-1-yl]methyl}phenyl)methanone] has a pIC50 of 8.52. Cc1cc(-c2nc(-c3ccc(C(C)(C)C(F)(F)F)cc3)no2)nn1Cc1cccc(S(=O)(=O)N2CCC(O)CC2)c1 [Example 140, 1-({3-[(5-Methyl-3-{3-[4-(1,1,1-trifluoro-2-methylpropan-2-yl)phenyl]-1,2,4-oxadiazol-5-yl}-1H-pyrazol-1-yl)methyl]phenyl}sulfonyl)piperidin-4-ol] gave a pIC50 of 8.40. Work on COC1CCN(c2cc(Cn3nc(-c4nc(-c5ccc(OC(F)(F)F)cc5)no4)cc3C)ccn2)CC1 [Example 150, 2-(4-Methoxypiperidin-1-yl)-4-[(5-methyl-3-{3-[4-(trifluoromethoxy)phenyl]-1,2,4-oxadiazol-5-yl}-1H-pyrazol-1-yl)methyl]pyridine] yielded a pIC50 of 8.52.
